Data from the supplement of paper PMC12490022.
± gives the uncertainty stated by the source.

Tested on: ozone
Test: apparent second-order rate constant for reaction with ozone (kapp,O3) (M-1 s-1); higher = faster oxidation by ozone
Settings: pH 7; temperature: 22 C; OH radical scavenger: tBuOH 80 mM; phosphate 4 mM
Description: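 Apparent second-order rate constants for reaction with ozone at pH 7 were determined by multicompound competition kinetics. Mixtures of targets and competitors (10 ug/L each) were ozonated in 4 mM phosphate buffer, pH 7, with 80 mM tBuOH as OH-radical scavenger, at 22 ± 1 °C. Peak-area abatement was measured by HPLC-HRMS/MS and k was derived from ln-ln slopes against competitors with known k (R2 > 0.9, >= 10 points, slope 0.1-10). Experiments were run in triplicate on 3 days; the value is the mean over valid competitors ± SD.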

Compound | apparent second-order rate constant
CN1C(=O)CCC1c1cccnc1 (stereo not given) [Cotinine] | 2.9 ± 0.3
C[N+](C)([O-])CCC(c1ccccc1)c1ccccn1 (stereo not given) [Pheniramine-N-oxide] | 2.4 ± 0.3
COc1ccnc(CS(=O)c2nc3ccc(OC(F)F)cc3[nH]2)c1OC (stereo not given) [Pantoprazole] | 108 ± 5.6
Cc1cccc(C)c1NC(=O)CN1CCN(CC(O)CO)CC1 (stereo not given) [O-Desarylranolazine] | 570000 ± 48000
CCOC(=O)c1c(COCC(=O)O)nc(C)c(C(=O)OC)c1-c1ccccc1Cl [O-Des[2-aminoethyl]-O-carboxymethyl-dehydroamlodipine] | 0.401 ± 0.014
CNCC(c1ccc(O)cc1)C1(O)CCCCC1 (stereo not given) [N,O-Didesmethylvenlafaxine] | 1.99e+06 ± 120000
CC1(C)SC2C(NC(=O)C(N)c3ccc(O)cc3)C(=O)N2C1C(=O)O (stereo not given) [Amoxicillin] | 2.2e+06 ± 190000
O=C(O)C(c1ccccc1)C1CCCCN1 (stereo not given) [Ritalinic acid] | 139 ± 7.2
O=C1C=CC(=C2NC=CNC2=O)C=C1 [Amoxicillin impurity F] | 3.75e+06 ± 540000
CN(C=O)CCC(Oc1ccc(C(F)(F)F)cc1)c1ccccc1 (stereo not given) [Fluoxetine formamide] | 2.7 ± 0.3
COc1ccc2c(c1)c(CC(=O)OCC(=O)O)c(C)n2C(=O)c1ccc(Cl)cc1 [Acemethacin] | 1.04e+06 ± 86000
CNC(C)C(O)c1ccccc1 (stereo not given) [Ephedrine] | 1720 ± 150
c1cncc(C2CCCN2)c1 (stereo not given) [Nornicotine] | 6350 ± 520
CNCC(O)c1cccc(OS(=O)(=O)O)c1 (stereo not given) [Phenylephrine-3-O-sulfate] | 2890 ± 220
CCC(c1cccc(OS(=O)(=O)O)c1)C(C)CN(C)C (stereo not given) [Tapentadol-O-sulfate] | 1530 ± 150
COc1ccc(CCN(C)CCCC(C#N)(c2ccc(OC)c(OC)c2)C(C)C)cc1OC (stereo not given) [Verapamil] | 64000 ± 14000
CCOC(=O)C1=C(COCCN)NC(C)=C(C(=O)OC)C1c1ccccc1Cl (stereo not given) [Amlodipine] | 9.9e+07 ± 2.2e+07
CCC1OC(=O)C(C)C(O)C(C)C(OC2OC(C)CC(N(C)C)C2O)C(C)(O)CC(C)CN(C)C(C)C(O)C1(C)O (stereo not given) [Desosaminylazithromycin] | 239000 ± 8000
O=C(c1ccccc1)c1ccc(Cl)cc1 [4-Chlorobenzophenone] | 0.58 ± 0.04
Cc1ccc2nc(-c3ccc(C(=O)O)cc3)c(CC(=O)N(C)C)n2c1 [Zolpidem carboxylic acid] | 6.3e+06 ± 400000
C[N+](C)(CCOC(c1ccccc1)c1ccccc1)C1OC(C(=O)[O-])C(O)C(O)C1O (stereo not given) [Diphenhydramine-N-glucuronide] | 3.6 ± 0.4
NC(=O)N1c2ccccc2CC(O)c2ccccc21 (stereo not given) [Licarbazepine] | 10.9 ± 1.2
CC1CC2C3CCC4=CC(=O)C=CC4(C)C3(F)C(O)CC2(C)C1(O)C(=O)CO (stereo not given) [Betamethasone] | 35.8 ± 1.8
Nc1c(I)c(N)c(I)c(C(=O)O)c1I [3,5-Diamino-2,4,6-triiodobenzoic acid] | 1.02e+07 ± 700000
CC(NC(C)(C)C)C(O)c1cccc(Cl)c1 (stereo not given) [Dihydrobupropion] | 162 ± 8.9

Compound | apparent second-order rate constant
CC(C)NC(=O)NS(=O)(=O)c1cnccc1Nc1cccc(CO)c1 [Hydroxytorasemide] | 850 ± 70
CCNCC(=O)Nc1c(C)cccc1C [Lidocaine-N-desethyl] | 17000 ± 1700
CC(=O)Nc1ccc(S(=O)(=O)Nc2nc(C)cc(C)n2)cc1 [N4-Acetylsulfamethazine] | 815 ± 43
Cc1cccc(Nc2ccccc2C(=O)O)c1C [Mefenamic acid] | 1.12e+06 ± 80000
CC12C=CC(=O)C=C1CCC1C2C(=O)CC2(C)C1CCC2(O)C(=O)CO (stereo not given) [Prednisone] | 324 ± 15
O=C(O)Cc1ccccc1Nc1c(Cl)cccc1Cl [Diclofenac] | 830000 ± 71000
Nc1cc(Cl)c(S(N)(=O)=O)cc1S(N)(=O)=O [4-Amino-6-chlorobenzene-1,3-disulfonamide] | 90.5 ± 4.7
C1=Cc2ccccc2Nc2ccccc21 [Iminostilbene] | 7.6e+07 ± 1.7e+07
Cc1c(NC=O)c(=O)n(-c2ccccc2)n1C [4-Formylaminoantipyrine] | 61000 ± 14000
CC(CN(C)C)CN1c2ccccc2CCc2cc(O)ccc21 (stereo not given) [2-Hydroxytrimipramine] | 8.7e+07 ± 1.9e+07
C[N+]1([O-])CCN2c3ccccc3Cc3ccccc3C2C1 (stereo not given) [Mianserin-N-oxide] | 295000 ± 26000
COc1cc(NS(=O)(=O)c2ccc(N)cc2)nc(OC)n1 [Sulfadimethoxine] | 1.53e+06 ± 100000
O=c1n(CCCN2CCN(c3cccc(Cl)c3)CC2)nc2ccccn12 [Trazodone] | 1.31e+07 ± 1.6e+06
COC(=O)C1C(OC(=O)c2ccccc2)CC2CCC1[N+]2(C)[O-] (stereo not given) [Cocaine-N-oxide] | < 0.401
COCCCOc1cc(CC(CC(N)C(O)CC(C(=O)NCC(C)(C)C(N)=O)C(C)C)C(C)C)ccc1OC (stereo not given) [Aliskiren] | 22000 ± 5000
Nc1nnc(-c2cccc(Cl)c2Cl)c(N)n1 [Lamotrigine] | 17.1 ± 1.2
CC(=O)Oc1ccc(C(c2ccc(OC(C)=O)cc2)c2ccccn2)cc1 [Bisacodyl] | 2.6 ± 0.3
CCN1CCCC1CNC(=O)c1cc(S(N)(=O)=O)ccc1OC (stereo not given) [Sulpiride] | 1.75e+06 ± 70000
CN(C)CCCC1(c2ccc(F)cc2)OCc2cc(C#N)ccc21 (stereo not given) [Citalopram] | 12600 ± 1100
CCC1OC(=O)C(C)C(OC2CC(C)(OC)C(O)C(C)O2)C(C)C(OC2OC(C)CC(NC)C2O)C(C)(OC)CC(C)C(=O)C(C)C(O)C1(C)O (stereo not given) [N-Desmethylclarithromycin] | 6500 ± 520
O=c1nc2[nH][nH]cc-2c(=O)[nH]1 [Oxypurinol] | 4 ± 2.5
O=C(O)COCC[N+]1([O-])CCN(C(c2ccccc2)c2ccc(Cl)cc2)CC1 (stereo not given) [Cetirizine-N-oxide] | 5670 ± 460
CNC1(c2ccccc2Cl)CCCCC1=O (stereo not given) [Ketamine] | 10400 ± 1000
Cc1ccc(-c2nc3ccc(C)cn3c2CC(=O)N(C)C)cc1 [Zolpidem] | 1.28e+07 ± 900000
CCC1OC(=O)C(C)C(OC2CC(C)(OC)C(O)C(C)O2)C(C)C(OC2OC(C)CC(NC)C2O)C(C)(O)CC(C)CN(C)C(C)C(O)C1(C)O (stereo not given) [N-Desmethylazithromycin] | 10300 ± 980
